The values that follow come from PubChem BioAssay (NCI).

Structures are written as SMILES.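 Cells were grown in 96-well plates and exposed to each compound for 48 hours at five concentrations; endpoints were interpolated linearly between bracketing concentrations, or set to the highest concentration if not reached. The concentration for 50% growth inhibition is given as GI50. TGI: concentration producing complete growth inhibition.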

Common to all, as to test: NCI anticancer screen, dose series, 48 h
Test [1] deals with UACC-257 melanoma.
Test [2] relates to OVCAR-8 ovarian.
Test [3] concerns DLD-1 colon.
The subject of test [4] is HT29 colon.
Test [5] concerns MOLT-4 leukemia.
For test [6], the system named is HOP-62 NSCLC.
For test [7], the system named is M14 melanoma.
Test [8] deals with HL-60(TB) leukemia.
The subject of test [9] is DMS 114 small cell lung.

On to `CCOC(=O)C1SC(=Nc2ccc(Cl)c(Cl)c2)N=C1C` (configuration not stated), for which the TGI is above 100 µM in [1]; above 100 µM in [2]; above 100 µM in [3]; 66.8 µM in test [4]; above 100 µM in test [5]; above 100 µM in test [6]. Also, the TGI was above 100 µM in test [7] and 59.7 µM in test [8].

On to `CCN(CCCl)CCCNc1c2ccccc2nc2ccc(OC)cc12`, for which the GI50 in [1] is 457 µM; in test [3] it was 174 µM; in test [4], 82.3 µM; in test [5] it was 15.7 µM; in test [6], 200 µM; in test [7] it was 213 µM. For the same compound, the GI50 in [8] is 175 µM. For the same compound, the TGI in test [2] worked out at 1.63 µM; in test [9], 1.76 µM.

Take `c1ccc2c(c1)[nH]c1cnc3c4cccnc4[nH]c3c12`: the TGI is 52.4 µM in test [1]; 32 µM in test [2]; 33.5 µM in test [3]; 34.6 µM in test [4]; 49.3 µM in [5]; 96.1 µM in [6]. Further, the TGI amounted to 37.4 µM in test [9], 30.1 µM in test [7] and 35.5 µM in test [8].

Consider `O=C1CN(C(=O)c2ccccc2)Cc2[nH]c3ccccc3c21`, for which the TGI in [1], in test [2], in [3], in test [4], in test [5] and in test [6] was above 100 µM throughout. The TGI in test [9], in test [7] and in test [8] was above 100 µM each time.

In the case of `CCCCOC(=O)NC(=O)c1cn(CCSCCOC(=O)NCCCCCCNC(=O)OCCSCCn2cc(C(=O)NC(=O)OCCCC)c(=O)[nH]c2=O)c(=O)[nH]c1=O`, the TGI in test [1], in test [3], in test [4], in [6], in test [9] and in [7] was above 100 µM each time. This compound also had a TGI in test [8] above 100 µM.

In the case of `O=C(OCC1CO1)c1cccs1` (configuration not stated), the TGI in test [1], in test [2], in test [3], in [4], in test [5] and in test [6] was above 100 µM each time. Also, the TGI in test [9], in test [7] and in test [8] was above 100 µM in each case.

`Nc1c(C(=O)Nc2ccccc2)[n+]([O-])c2ccccc2[n+]1[O-]`: the TGI was 59.4 µM in test [1]; above 100 µM in [2]; 37.6 µM in test [3]; 37 µM in test [4]; above 100 µM in [5]; 34.4 µM in [6]. For the same compound, the TGI in [9] amounted to 26.8 µM; in test [7], 32.8 µM; in test [8], 90.8 µM.

As to `Fc1ccc(C2SCc3nc4ccccc4n32)cc1` (configuration not stated), the TGI in test [2], in test [3], in test [4], in [5], in test [6] and in [9] was above 100 µM throughout. In addition, the figures for the TGI in [7] and in test [8] were above 100 µM and 71.8 µM, respectively.

For `Cc1cccc(C2=NC(C)(C)C(C)(C)N=C2c2cccc(C)n2)n1`, the TGI in test [1], in test [2], in [3], in [4], in test [6] and in test [9] was above 100 µM throughout. The TGI in [7] and in [8] was above 100 µM throughout.

For `CC(C)(C)C(=O)ON1N=NC2C3CC(OCc4ccccc4)(OCc4ccccc4)C(O3)C21` (configuration not stated), the TGI in [1] was 29.2 µM; in [3], 44.6 µM; in test [4], 47.9 µM; in test [5], 32.2 µM; in test [6], above 100 µM; in test [7], 85.7 µM. The same compound gave a TGI in test [8] of 19 µM.

As to `O=C1Nc2cc([N+](=O)[O-])ccc2NC1/C(=N\Nc1ccccc1)C(O)c1cccc([N+](=O)[O-])c1` (configuration not stated), the TGI in test [1], in [2], in test [3], in test [4], in test [5] and in test [6] was above 100 µM throughout. The TGI in test [9], in [7] and in test [8] was above 100 µM each time.

As to `Cc1cc(NS(=O)(=O)c2ccc(NC(=O)c3cccc4c(Nc5ccc(S(=O)(=O)N=C(N)N)cc5)c5ccccc5nc34)cc2)no1`, the TGI in [1], in test [2], in [3], in test [4], in [5] and in test [6] was above 100 µM throughout. The TGI in test [7] and in test [8] was above 100 µM in each case.

With `CN1CC(C(=O)C2C(=O)c3ccccc3C2=O)C(=O)C(=O)C(C(=O)C2C(=O)c3ccccc3C2=O)C1` (configuration not stated), the TGI in test [1] is above 100 µM; in test [2] it was above 100 µM; in test [3] it was above 100 µM; in [4], above 100 µM; in test [5] it was above 100 µM; in [6], above 10 µM. For the same compound, the TGI in test [9] is above 100 µM; in [7], above 10 µM; in test [8], above 100 µM.

Take `O=C(C(=O)N1CC2C=CC1CC2)c1c[nH]c2ccccc12` (configuration not stated): the TGI in test [1], in test [2], in test [3], in test [4], in test [5] and in test [6] was above 100 µM throughout. Further, the TGI in test [9], in [7] and in [8] was above 100 µM throughout.

Take `C1OC1CO[C@@H]1CO[C@H]2[C@@H]1OC[C@H]2OCC1CO1` (some centres not stated): the TGI in test [1], in [2], in [3], in [4], in test [5] and in test [6] was above 100 µM each time. For the same compound, the TGI in [9], in test [7] and in test [8] was above 100 µM each time.
